The subject of assay [1] is colon cancer cells (HCT116). As to the kind of experiment: Cancer cell line growth inhibition (SRB assay). Format: cell-based. To be noted: Homo sapiens, HCT-116, read-out: Cancer Cell Line GI50 Range HCT116. For orientation: The SRB assay estimates cell density from bound dye.
Assay [2] concerns ovarian cancer cells (PA-1). The assay can be described thus: Cancer cell line growth inhibition (SRB assay). Conditions: read-out: Cancer Cell Line GI50 Range PA-1. Format: cell-based.
Setting [3] is: HCT116 colon cancer cells, SRB assay.
Setting [4] is: PA-1 ovarian cancer cells, SRB assay.

As a reminder, the GI50 is the concentration at which growth is held to half of that of the control.

Where two headings read alike, the source gives them in different places.

With `CN1CCC(Oc2ccc(-c3n[nH]c4ccc(C(=O)N[C@@H](CCO)c5ccccc5)cc34)cc2)CC1` [Example A125, (S)-N-(3-hydroxy-1-phenylpropyl)-3-(4-((1-methylpiperidin-4-yl)oxy)phenyl)-1H-indazole-5-carboxyamide], the GI50 in assay [1] (setting [3]) and in assay [2] (setting [4]) was 100 to 500 nM throughout.
With `CN1CCC(Oc2ccc(-c3n[nH]c4ccc(C(=O)NC(c5ccsc5)C5CCC5)cc34)cc2)CC1` (centres unmarked) [Example A121, N-(cyclobutyl(thiophen-3-yl)methyl)-3-(4-((1-methylpiperidin-4-yl)oxy)phenyl)-1H-indazole-5-carboxamide], the concentration for 50% growth inhibition (GI50) in assay [1] (setting [3]) and in assay [2] (setting [4]) was less than 100 nM throughout.
Turning to `O=C(NC(c1ccccc1)C1CC1)c1ccc2[nH]nc(-c3ccc(OC4CCN(CCO)CC4)cc3)c2c1` (centres unmarked) [Example A104, N-(cyclopropyl(phenyl)methyl)-3-(4-((1-(2-hydroxyethyl)piperidin-4-yl)oxy)phenyl)-1H-indazole-5-carboxamide], the concentration for 50% growth inhibition (GI50) in assay [1] (setting [3]) and in assay [2] (setting [4]) was less than 100 nM each time.
For `CN(C)C(=O)CN1CCC(Oc2ccc(-c3n[nH]c4ccc(C(=O)NC(c5ccccc5)C5CC5)cc34)cc2)CC1` (centres unmarked) [Example A158, N-(cyclopropyl(phenyl)methyl)-3-(4-((1-(2-(dimethylamino)-2-oxoethyl)piperidin-4-yl)oxy)phenyl)-1H-indazole-5-carboxamide], the GI50 in assay [1] (setting [3]) and in assay [2] (setting [4]) was 100 to 500 nM in each case.
As for `O=C(Nc1ccc2[nH]nc(-c3ccc(N4CC(O)C4)cc3)c2c1)C(c1ccsc1)N1CCCC1` (centres unmarked) [Example A120, N-(3-(4-(3-Hydroxyazetidin-1-yl)phenyl)-1H-indazol-5-yl)-2-(pyrrolidin-1-yl)-2-(thiophen-3-yl)acetamide], the GI50 in assay [1] (setting [3]) and in assay [2] (setting [4]) was less than 100 nM in each case.
Consider `O=C(NC(c1ccccn1)C1CC1)c1ccc2[nH]nc(-c3ccc(OC4CN(C5COC5)C4)cc3)c2c1` (centres unmarked) [Example A209, N-(cyclopropyl(pyridin-2-yl)methyl)-3-(4-((1-(oxetan-3-yl)azetidin-3-yl)oxy)phenyl)-1H-indazole-5-carboxamide], for which the GI50 in assay [1] (setting [3]) and in assay [2] (setting [4]) was 100 to 500 nM each time.
Regarding `CCc1cccc(CC)c1NC(=O)Nc1ccc2[nH]nc(-c3ccc4c(c3)CN(C)CCO4)c2c1` [Example A114, 1-(2,6-diethylphenyl)-3-(3-(4-methyl-2,3,4,5-tetrahydrobenzo[f][1,4]oxazepin-7-yl)-1H-indazol-5-yl)urea], the GI50 in assay [1] (setting [3]) and in assay [2] (setting [4]) was more than 500 nM each time.
Take `O=CN1CCC(Oc2ccc(-c3n[nH]c4ccc(C(=O)N[C@@H](c5ncccc5Cl)C5CC5)cc34)cc2)CC1` [Example A211, (R)-N-((3-chloropyridin-2-yl)(cyclopropyl)methyl)-3-(4-((1-formylpiperidin-4-yl)oxy)phenyl)-1H-indazole-5-carboxamide]: the GI50 was 100 to 500 nM in assay [1] and 100 to 500 nM in assay [2] (Homo sapiens, PA-1).
Turning to `O=C(N[C@@H](c1ccccn1)C1CC1)c1ccc2[nH]nc(-c3ccc(OC4CCN(C5COC5)CC4)cc3)c2c1` [Example A196, (R)-N-(cyclopropyl(pyridin-2-yl)methyl)-3-(4-((1-(oxetan-3-yl)piperidin-4-yl)oxy)phenyl)-1H-indazole-5-carboxamide], the concentration for 50% growth inhibition (GI50) in assay [1] (setting [3]) and in assay [2] (setting [4]) was less than 100 nM throughout.
As to `O=C(NC(c1ccccc1)C1CCC1)c1ccc2[nH]nc(-c3ccc(N4CCC(O)CC4)cc3)c2c1` (centres unmarked) [Example A100, N-(cyclobutyl(phenyl)methyl)-3-(4-(4-hydroxypiperidin-1-yl)phenyl)-1H-indazole-5-carboxamide], the 50% growth inhibitory concentration (GI50) in assay [1] (setting [3]) and in assay [2] (setting [4]) was less than 100 nM in each case.
In the case of `COC(C(=O)Nc1ccc2[nH]nc(-c3ccc(N4CCC(O)CC4)cc3)c2c1)c1ccsc1` (centres unmarked) [Example A87, N-(3-(4-(4-hydroxypiperidin-1-yl)phenyl)-1H-indazol-5-yl)-2-methoxy-2-(thiophen-3-yl)acetamide], the 50% growth inhibitory concentration (GI50) in assay [1] (setting [3]) and in assay [2] (setting [4]) was 100 to 500 nM throughout.
As for `CC(C)(O)C1CCN(c2ccc(-c3n[nH]c4ccc(NC(=O)C(c5ccsc5)N5CCCC5)cc34)cc2)CC1` (centres unmarked) [Example A111, N-(3-(4-(4-(2-hydroxypropan-2-yl)piperidin-1-yl)phenyl)-1H-indazol-5-yl)-2-(pyrrolidin-1-yl)-2-(thiophen-3-yl)acetamide], the GI50 in assay [1] (setting [3]) and in assay [2] (setting [4]) was less than 100 nM in each case.
With `O=C(Nc1ccc2[nH]nc(-c3ccc(N4CCC(O)CC4)cc3)c2c1)C(c1ccsc1)N1CCCCC1` (centres unmarked) [Example A83, N-(3-(4-(4-hydroxypiperidin-1-yl)phenyl)-1H-indazol-5-yl)-2-(piperidin-1-yl)-2-(thiophen-3-yl)acetamide], the GI50 is less than 100 nM in assay [1] (setting [3]) and 100 to 500 nM in assay [2] (setting [4]).
For `Cc1ccccc1C(NC(=O)c1ccc2[nH]nc(-c3ccc(N4CCOCC4)cc3)c2c1)C1CC1` (centres unmarked) [Example A119, N-(cyclopropyl(o-tolyl)methyl)-3-(4-morpholinophenyl)-1H-indazole-5-carboxamide], the GI50 in assay [1] (setting [3]) and in assay [2] (setting [4]) was 100 to 500 nM each time.
Take `Cc1ccccc1C(NC(=O)c1ccc2[nH]nc(-c3ccc(OC4CCN(C)CC4)cc3)c2c1)C(C)C` (centres unmarked) [Example A143, N-(2-methyl-1-(o-tolyl)propyl)-3-(4-((1-methylpiperidin-4-yl)oxy)phenyl)-1H-indazole-5-carboxamide]: the concentration for 50% growth inhibition (GI50) in assay [1] (setting [3]) and in assay [2] (setting [4]) was 100 to 500 nM throughout.
With `CN1CCN(C)c2ccc(-c3n[nH]c4ccc(NC(=O)C(c5ccsc5)N5CCCC5)cc34)cc2C1` (centres unmarked) [Example A93, N-(3-(1,4-dimethyl-2,3,4,5-tetrahydro-1H-benzo[e][1,4]diazepin-7-yl)-1H-indazol-5-yl)-2-(pyrrolidin-1-yl)-2-(thiophen-3-yl)acetamide], the concentration for 50% growth inhibition (GI50) in assay [1] (setting [3]) and in assay [2] (setting [4]) was more than 500 nM in each case.
Regarding `COCCN1CCC(Oc2ccc(-c3n[nH]c4ccc(NC(=O)[C@H](OC)c5ccccc5)cc34)cc2)CC1` [Example A107, (R)-2-methoxy-N-(3-(4-((1-(2-methoxyethyl)piperidin-4-yl)oxy)phenyl)-1H-indazol-5-yl)-2-phenylacetamide], the concentration for 50% growth inhibition (GI50) in assay [1] (setting [3]) and in assay [2] (setting [4]) was 100 to 500 nM throughout.
For the compound `CN1CCC(Oc2ccc(-c3n[nH]c4ccc(C(=O)NCc5ccccc5CO)cc34)cc2)CC1` [Example A142, N-(2-(hydroxymethyl)benzyl)-3-(4-((1-methylpiperidin-4-yl)oxy)phenyl)-1H-indazole-5-carboxamide], the concentration for 50% growth inhibition (GI50) is 100 to 500 nM in assay [1] (setting [3]) and more than 500 nM in assay [2] (setting [4]).
The corresponding values for `CN1CCC(Oc2ccc(-c3n[nH]c4ccc(C(=O)NCC(c5ccccc5)C5CCCC5)cc34)cc2)CC1` (centres unmarked) [Example A207, N-(2-cyclopentyl-2-phenylethyl)-3-(4-((1-methylpiperidin-4-yl)oxy)phenyl)-1H-indazole-5-carboxamide] are 100 to 500 nM and 100 to 500 nM.
As to `O=C(Nc1ccc2[nH]nc(-c3ccc(N4CCC(O)CC4)cc3)c2c1)C(c1cccs1)N1CCCC1` (centres unmarked) [Example A88, N-(3-(4-(4-hydroxypiperidin-1-yl)phenyl)-1H-indazol-5-yl)-2-(pyrrolidin-1-yl)-2-(thiophen-2-yl)acetamide], the concentration for 50% growth inhibition (GI50) in assay [1] (setting [3]) and in assay [2] (setting [4]) was less than 100 nM throughout.
As to `O=CN1CCC(Oc2ccc(-c3n[nH]c4ccc(C(=O)NC(c5ccccc5)C5CC5)cc34)cc2)CC1` (centres unmarked) [Example A126, N-(cyclopropyl(phenyl)methyl)-3-(4-((1-formylpiperidin-4-yl)oxy)phenyl)-1H-indazole-5-carboxamide], the GI50 in assay [1] (setting [3]) and in assay [2] (setting [4]) was 100 to 500 nM in each case.
With `COCCN1CCC(Oc2ccc(-c3n[nH]c4ccc(C(=O)NC(c5ccccc5)C5CCCC5)cc34)cc2)CC1` (centres unmarked) [Example A161, N-(cyclopentyl(phenyl)methyl)-3-(4-((1-(2-methoxyethyl)piperidin-4-yl)oxy)phenyl)-1H-indazole-5-carboxamide], the GI50 in assay [1] (setting [3]) and in assay [2] (setting [4]) was 100 to 500 nM in each case.
For `COc1cc(-c2n[nH]c3ccc(C(=O)NC(c4ccccn4)C4CC4)cc23)ccc1OC1CCN(C2COC2)CC1` (centres unmarked) [Example A195, N-(cyclopropyl(pyridin-2-yl)methyl)-3-(3-methoxy-4-((1-(oxetan-3-yl)piperidin-4-yl)oxy)phenyl)-1H-indazole-5-carboxamide], the GI50 in assay [1] (setting [3]) and in assay [2] (setting [4]) was 100 to 500 nM each time.
In the case of `COc1cc(-c2n[nH]c3ccc(C(=O)NC(c4ccccc4)C4CC4)cc23)ccc1OC1CCN(C2COC2)CC1` (centres unmarked) [Example A194, N-(cyclopropyl(phenyl)methyl)-3-(3-methoxy-4-((1-(oxetan-3-yl)piperidin-4-yl)oxy)phenyl)-1H-indazole-5-carboxamide], the 50% growth inhibitory concentration (GI50) in assay [1] (setting [3]) and in assay [2] (setting [4]) was 100 to 500 nM throughout.
Consider `Cc1ccccc1C(NC(=O)c1ccc2[nH]nc(-c3ccc(N4CC(O)C4)cc3)c2c1)C1CC1` (centres unmarked) [Example A141, N-(cyclopropyl(o-tolyl)methyl)-3-(4-(3-hydroxyazetidin-1-yl)phenyl)-1H-indazole-5-carboxamide], for which the GI50 in assay [1] (setting [3]) and in assay [2] (setting [4]) was 100 to 500 nM in each case.
Turning to `COC1CCN(c2ccc(-c3n[nH]c4ccc(NC(=O)C(c5ccsc5)N5CCCC5)cc34)cc2)CC1` (centres unmarked) [Example A116, N-(3-(4-(4-methoxypiperidin-1-yl)phenyl)-1H-indazol-5-yl)-2-(pyrrolidin-1-yl)-2-(thiophen-3-yl)acetamide], the GI50 in assay [1] (setting [3]) and in assay [2] (setting [4]) was 100 to 500 nM throughout.
As for `CN1CCC(Oc2ccc(-c3n[nH]c4ccc(C(=O)NCc5ccccc5CN5CCOCC5)cc34)cc2)CC1` [Example A109, 3-(4-(1-Methylpiperidin-4-yloxy)phenyl)-N-(2-(morpholinomethyl)benzyl)-1H-indazole-5-carboxamide], the results for the GI50 in assay [1] (setting [3]) and in assay [2] (setting [4]) were more than 500 nM and 100 to 500 nM, respectively.
The matching figures for `CCC(NC(=O)c1ccc2[nH]nc(-c3ccc(OC4CCN(CCOC)CC4)cc3)c2c1)c1ccccc1` (centres unmarked) [Example A153, 3-(4-((1-(2-methoxyethyl)piperidin-4-yl)oxy)phenyl)-N-(1-phenylpropyl)-1H-indazole-5-carboxamide]: 100 to 500 nM and 100 to 500 nM.

Source of the values: patent US9580390B2, “Indazole compounds as kinase inhibitors and method of treating cancer with same” (University Health Network, priority 2011, dated 2017).
